Measurements as given in US6348317B1, “Fluorescent and DNA cleavage properties of peptide/dye conjugates” (The Arizona Board of Regents, priority 1999, dated 2002).

Assays:
[1] = target: fluorescein labeled GRE2 sequence dsDNA (F-GRE2); assay: Total fluorescence quenching (energy transfer) of fluorescein labeled DNA; type: binding
Protocol: Fluorescence Measurements. Steady state fluorescence anisotropy measurements were carried out in 20 mM Tris (pH 7.9), 30 mM NaCl, 20 mM KCl, 1 mM MgCl2, and 5% glycerol. […] DNA samples used were either the non-labeled sequences shown in FIG. 2 or a fluorescein labeled duplex with a sequence matching GRE2 (FIG. 2).
For fluorescein labeled DNA measurements, the excitation wavelength was 491 nm and the emission was recorded at 521 nm with a 1.0 nm slit width. Titrations were performed holding the concentration of fluorescein-labeled DNA constant and increasing the concentration of TO, ZF or TO-ZF as indicated. To correct for the small amount of background fluorescence from TO in these measurements, control experiments were performed in parallel using DNA that was not fluorescein labeled, but was otherwise identical to the labeled DNA fragments. The thiazole orange fluorescence intensity measured in the control experiments was subtracted from the total fluorescence intensity for each data point. Under the excitation conditions of these measurements, the contribution to fluorescence by TO at 521 nm was less than 5% of the maximum fluorescence signal observed in the experiment. Even at the point in the titration where the maximum quenching of fluorescein fluorescence was observed (the point of lowest total fluorescence in the measurement), less than half of the fluorescence was due to TO, and this could accurately be removed by subtraction of the control value. Each point is an average of 60 measurements, and each titration was performed independently three times.
Total fluorescence data were collected in parallel to the anisotropy measurements and were calculated from raw data as the fluorescence intensity in the vertical plane plus two times the fluorescence intensity of the horizontal plane, (TF=Ivv+2Ivh). These values were used to determine the percent of the maximum fluorescence for each point along the titration and fit to equation 2. [formula] […]
Fluorescence changes upon binding of TO, ZF and TO-ZF to GRE containing duplex DNA. Equilibrium binding of the non-labeled zinc finger (ZF), unconjugated thiazole orange (TO) and thiazole orange-zinc finger conjugate (TO-ZF) to fluorescein labeled GRE2 sequence dsDNA was measured by both fluorescence anisotropy and total fluorescence. […] For fluorescein fluorescence, excitation was at 491 nm and emission was detected at 521 nm. […] Changes in the steady-state anisotropy of the fluorescein fluorescence from the labeled GRE sequence containing DNA (F-GRE2) can arise from two sources. […] By comparison, the amino acid zinc finger Xfin-31 was determined to have a dissociation constant of approximately 1 μM, M. S. Lee, et al., FEBS 279:289-294 (1991), whereas, the 66 amino acid zinc finger from GATA-1 has a dissociation constant of 10 nM. […]

GRE1 dsDNA = assay: Photocleavage at 514 nm, PAGE analysis; type: biochemical
Protocol: The purified DNA strands shown in FIG. 2 were 5′^-32P-end-labeled using T4 polynucleotide kinase and purified as described above. Oxygen removal was performed by bubbling argon through the samples. Irradiations were performed on […] samples in a 1.0 mL glass cuvette fit with a septum using an argon-ion laser at 514 nm with a power of 300 mW/cm^2. After irradiation, samples were divided in half and one portion treated with piperidine, the other immediately frozen. Piperidine treatment consisted of adding an equal volume of freshly prepared 20% piperidine in water to the sample followed by heating at 90° C. for 30 minutes. Both the treated and untreated fractions were dried under vacuum. To each dried sample was added […] of 80% formamide in water. The products of the photocleavage experiments were analyzed on a 15% polyacrylamide (19:1) vertical sequencing gel with dimensions 21 cm×40 cm×0.4 mm. […] Gels were dried and exposed to a phosphorimaging screen for 4 hours and analyzed on a Molecular Dynamics Storm-840 gel scanner in phosphorimaging mode.
Photocleavage of TO-ZF conjugate. […] After irradiation of TO-ZF bound to dsDNA in Tris buffer solution at 514 nm (514 nm is in the main band of the absorbance spectrum of intercalated thiazole orange as shown in FIG. 3), the photo-products were denatured and separated using denaturing polyacrylamide gel electrophoresis (PAGE). […]

Substance: TO-ZF: 29 amino acid single zinc finger from residues 438-465 of glucocorticoid receptor, thiazole orange coupled to a lysine ε-amine
- Kd ([1]; 1 nM F-GRE2, read-out: dissociation constant from quenching curve, two-state binding model): 14 nM
- change in total fluorescein fluorescence over the titration ([1]; excitation 491 nm, emission 521 nm): large decreases in steady state fluorescence
- site of photocleavage (GRE1 dsDNA; 514 nm irradiation, piperidine treatment): piperidine dependent cleavage to occur predominantly at the guanine within the GRE
- total chemical yield of the piperidine dependent reactions (GRE1 dsDNA; samples reacted in the presence of oxygen): 2%
